For assay [1], the target named is KcsA-Kv1.3-RFP. The experiment in a line: Displacement of GFP-labeled toxins by unlabeled toxins on spheroplasts, flow cytometry. Format: binding. The note with it: for Kd: displacement of AgTx2-GFP, Cheng-Prusoff, Mean ± SD, read-out: Apparent dissociation constant (Kap). How it is done: (§1) Spheroplasts were prepared according to the previously developed protocol. Briefly, E. coli cells (BL21 (DE3) strain) transformed with pET28a-KcsA-Kv1.3-RFP plasmid were cultivated in a minimal M9 medium at 37 °C up to OD560 = 0.8, then induced with 50 μM IPTG and further grown for 18 h. Cells were harvested by centrifugation (5000× g, 10 min, 4 °C), incubated in buffer A (10 mM Tris–HCl, pH 8.0, 0.5 m sucrose) containing lysozyme (20 μg/mL) for 7 min on ice, then diluted twofold with buffer B (10 mM Tris–HCl, pH 8.0, 0.3 mM ethylenediamine tetraacetic acid) and further incubated for 20 min. Then MgCl2 was added to a final concentration of 10 mM to stabilize the spheroplasts. Obtained in this way, the spheroplast suspension has OD560 of about 0.5 and was diluted for binding assay as described further.
(§2) For ligand binding analysis, a series of ligand dilutions were prepared in 12 × 75 mm flow cytometry test tubes. For this, 45 µL of toxin solution with a ten times higher concentration than the maximal concentration on titration curve was prepared. This solution was serially diluted with 3.16-fold step (13.9 µL of toxin solution + 30 µL buffer). These toxin dilutions were supplemented with 270 µL of spheroplast suspension at 10^6 cells/mL to give 300 µL final reaction mixtures. For analysis of displacement of GFP-labeled toxins by unlabeled toxins, spheroplast suspensions were supplemented with 1.1× concentration of GFP-labeled toxin before mixing with unlabeled toxin dilutions. All dilutions were made in a binding buffer: 0.25 M sucrose, […], 2 mM KCl, 50 mM NaCl, 10 mM MgCl2, 0.2% BSA and 50 mM Tris–HCl, pH 7.5.
(§3) To ensure equilibrium conditions, we analyzed samples after 90–120 min of incubation without removing toxins. Data acquisition was carried out with FC-500 flow cytometer (Beckman Coulter, Brea, CA, USA) using 488 nm excitation for both GFP and RFP and fluorescence detection with FL1 (505–545 nm) and FL3 (610–630 nm) channels for GFP and RFP, respectively. To minimize background fluorescence, samples were run at low speed that gave approx. 100–500 events/s. Events were triggered by side scatting (SSC) so that RFP-labeled cells constituted approx. 30% of events (Figure 2). Remaining events were also present in the samples of filtered binding buffer without cells, so were likely to be related to system noise (either electronic or optical) but not to the dim spheroplasts.
(§4) Automated data analysis was performed by a dedicated script after pre-processing with commercial software. The script was available in user-friendly Jupyter notebook format where data were processed stepwise, and user input-output was realized through an internet browser. This script is designed to process multiple datasets at once and can be easily adjusted for someone’s actual needs.
Initial preprocessing was done with used FlowJo v10 software (Treestar Inc., Wilmington, DE, USA). This was used for gating on cells by forward and side scatter, followed by gating of RFP-positive events (Figure 1) and exporting of gated data in FCS format. This step was preferable since it allowed one to convert data into a conventional FCS format (our flow cytometer import data in LMD file format) and to filter out off-target events such as system noise, cell debris, clumped and untransfected cells (without Kv1.3-RFP in our case). We also created a script for this preprocessing but found it more complicated and less robust than commercial software. […]
Background: A flow cytometer gives signals particle by particle.

The target in another assay is Kv1.3. Particulars: cited from earlier work. The protocol: Table 1 Kd values obtained by direct titration of GFP-toxins or by their displacement with unlabeled ones and their comparison to our previous and literature data. | column: Kd or IC50, nM / Literature Data || Our approach was evaluated using several Kv1.3 ligands with known dissociation constants. These are unlabeled recombinant channel blockers from scorpion venom, AgTx2, ChTx, KTx and labeled GFP-tagged chimeras AgTx-GFP and ChTx-GFP. […] This is close to the values reported earlier: 0.21 nM for AgTx2-GFP in our system and 1.8–2.6 nM for ChTx (Table 1).

Another assay concerns the target KcsA-Kv1.3. Particulars: ref Our Previous Data (Table 1); cited from earlier work. The protocol:
Table 1 Kd values obtained by direct titration of GFP-toxins or by their displacement with unlabeled ones and their comparison to our previous and literature data. | column: Dissociation Constants, nM * / Our Previous Data || Our approach was evaluated using several Kv1.3 ligands with known dissociation constants. These are unlabeled recombinant channel blockers from scorpion venom, AgTx2, ChTx, KTx and labeled GFP-tagged chimeras AgTx-GFP and ChTx-GFP. […] This is close to the values reported earlier: 0.21 nM for AgTx2-GFP in our system and 1.8–2.6 nM for ChTx (Table 1).

Assay [2] relates to KcsA-Kv1.3-RFP. The experiment in a line: Direct titration of GFP-labeled toxins on spheroplasts by flow cytometry. The assay is classed as binding. The protocol: as §1, §2, §3, §4
Initial preprocessing was done with used FlowJo v10 software (Treestar Inc., Wilmington, DE, USA). This was used for gating on cells by forward and side scatter, followed by gating of RFP-positive events (Figure 1) and exporting of gated data in FCS format. This step was preferable since it allowed one to convert data into a conventional FCS format (our flow cytometer import data in LMD file format) and to filter out off-target events such as system noise, cell debris, clumped and untransfected cells (without Kv1.3-RFP in our case). We also created a script for this preprocessing but found it more complicated and less robust than commercial software.
Filtered data were processed stepwise by a dedicated script, written in the Python programming language and available as a Jupyter notebook for running either on a local machine or in a kaggle data cloud (https://www.kaggle.com/georgesharonov/fcsgroupfit, accessed and executed on 14 November 2021). Data processing workflow was designed for high throughput analysis by processing all similar data in a single script execution. The processing steps were detailed within the notebook. […]

In the next assay the test system is Kv1 channels. The note with it: ref 17; cited from earlier work. The text has this:
Consequently, our flow cytometry approach can be used to screen unlabeled small organic blockers for their binding with the external lining of the pore. If necessary, FP-peptide blockers can be substituted in the presented assay by small fluorescently labeled ligands, and their affinities can be estimated by direct titration, using the approach ...

For assay [3], the target named is T1, KcsA-Kv1.3 hybrid potassium channel tagged with a red fluorescent protein (TagRFP) (Homotetramer. Turret swap limits are not printed: taken from the known KcsA-Kv1.3 chimera design (ref. 8), KcsA 52-64 replaced by the gap-free aligned Kv1.3 segment (the same stretch is expected in mo)).
T1 chain: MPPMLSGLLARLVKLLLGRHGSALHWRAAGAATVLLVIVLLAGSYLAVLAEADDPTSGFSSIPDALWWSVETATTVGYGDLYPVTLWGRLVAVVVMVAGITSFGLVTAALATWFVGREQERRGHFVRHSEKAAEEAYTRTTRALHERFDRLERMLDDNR
Description: flow cytometry on cells; same direct titration data; slope of GFP against RFP by linear fit of all RFP-positive events, one-site fit. Particulars: one partner purified.

Assay [4] deals with T1, KcsA-Kv1.3 hybrid potassium channel …. Description: flow cytometry on cells; same direct titration data; conventional analysis: mean or median of the RFP-positive minus the RFP-negative population; no saturation up to 100 nM, approach called inconsistent by the authors. The note with it: one partner purified.
The target is the same in assay [5]. The experiment in a line: flow cytometry on cells. Particulars: one partner purified.

Like-named read-outs stand apart in the source and are kept apart here. Ends that are not written are not given here. linker L1 (45 aa) = not defined here

With `CC[C@H](C)[C@H](NC(=O)[C@H](CCC(=O)O)NC(=O)[C@@H](NC(=O)CN)C(C)C)C(=O)N[C@@H](CC(N)=O)C(=O)N[C@H](C(=O)N[C@@H](CCCCN)C(=O)N[C@H]1CSSC[C@@H]2NC(=O)[C@H](CCCCN)NC(=O)CNC(=O)[C@H](Cc3ccccc3)NC(=O)[C@H](CCCNC(=N)N)NC(=O)[C@H](CCSC)NC(=O)CNC(=O)[C@H](C)NC(=O)[C@H](CC(=O)O)NC(=O)[C@H](CCCCN)NC(=O)[C@@H]3CSSC[C@@H](C(=O)N[C@H](C(=O)N4CCC[C@H]4C(=O)N[C@@H](CCCCN)C(=O)O)[C@@H](C)O)NC(=O)[C@H](Cc4c[nH]cn4)NC(=O)[C@H](CSSC[C@H](NC(=O)[C@H](CCC(N)=O)NC(=O)[C@@H]4CCCN4C(=O)[C@H](CO)NC(=O)CNC(=O)[C@H](CO)NC1=O)C(=O)N[C@@H](CC(C)C)C(=O)N[C@@H](CCCCN)C(=O)N1CCC[C@H]1C(=O)N3)NC(=O)[C@H](CCCCN)NC(=O)[C@H](CCCNC(=N)N)NC(=O)[C@H](CC(N)=O)NC(=O)[C@H](CCSC)NC2=O)C(C)C` [KTx, kaliotoxin 1], the values for the Kd on KcsA-Kv1.3-RFP [1] (n = 3) and on KcsA-Kv1.3 were 0.04 ± 0.02 nM and 0.78 nM, respectively. In addition, the “Kd or IC50 (literature)” value is 0.65 nM at Kv1.3 (ref 21), 0.02 nM at Kv1.3 (ref 22) and 0.1 to 2 nM on Kv1.3 (ref 23).
Consider “AgTx2-GFP: AgTx2 tagged N-terminally with eGFP, moieties separated by a 45-aa linker L1; fluorescent probe ({eGFP-linker L1 (45 aa)}-GVPINVSCTGSPQCIKPCKDAGMRFGKCMNRKCHCTPK; ends and bridges not checked)”, for which the Kd at KcsA-Kv1.3 was 0.21 nM. Besides, the “Slope, nonspecific binding” value in the assay on KcsA-Kv1.3-RFP [2] (1 nM labeled toxin + 100 nM AgTx, fitting of all events) was 0.49; in the assay on KcsA-Kv1.3-RFP [2] (1 nM labeled toxin + 100 nM AgTx, fitting of reduced data), 0.23; in the assay on KcsA-Kv1.3-RFP [2] (10 nM labeled toxin + 100 nM AgTx, fitting of all events), 0.54. Besides, the “Slope (proportional to occupied receptor fraction)” value with KcsA-Kv1.3-RFP [2] (1 nM labeled toxin, fitting of all events) worked out at 0.88; with KcsA-Kv1.3-RFP [2] (1 nM labeled toxin, fitting of reduced data) it was 0.82; in the assay with KcsA-Kv1.3-RFP [2] (10 nM labeled toxin, fitting of all events) it was 0.95; in the assay on KcsA-Kv1.3-RFP [2] (10 nM labeled toxin, fitting of reduced data), 0.9.
With `Nc1ccncc1` [4-aminopiridine], in the assay on Kv1 channels, the “inhibition of Kv1 channels” value is listed as “inhibit Kv1 channels from the inside of the cell”.
With `CC(C)/N=c1\cc2n(-c3ccc(Cl)cc3)c3ccccc3nc-2cc1Nc1ccc(Cl)cc1` [clofazimine], in the assay on Kv1 channels, the “inhibition of Kv1 channels” value is on record as “inhibit Kv1 channels from the inside of the cell”.
What is called IC50 is the concentration needed to halve the response being measured. In the case of `CC[C@H](C)[C@@H]1NC(=O)[C@@H]2CSSC[C@@H]3NC(=O)[C@H](CCCCN)NC(=O)[C@H](CCCNC(=N)N)NC(=O)[C@H](CC(N)=O)NC(=O)[C@H](CCSC)NC(=O)[C@H](CSSC[C@H](NC(=O)[C@H](CO)NC(=O)[C@@H](NC(=O)[C@H](CC(N)=O)NC(=O)[C@@H](NC(=O)[C@@H]4CCCN4C(=O)[C@@H](NC(=O)CN)C(C)C)[C@@H](C)CC)C(C)C)C(=O)N[C@@H]([C@@H](C)O)C(=O)NCC(=O)N[C@@H](CO)C(=O)N4CCC[C@H]4C(=O)N[C@@H](CCC(N)=O)C(=O)N2)NC(=O)[C@H](CCCCN)NC(=O)CNC(=O)[C@H](Cc2ccccc2)NC(=O)[C@H](CCCNC(=N)N)NC(=O)[C@H](CCSC)NC(=O)CNC(=O)[C@H](C)NC(=O)[C@H](CC(=O)O)NC(=O)[C@H](CCCCN)NC(=O)[C@H](CSSC[C@@H](C(=O)N[C@H](C(=O)N2CCC[C@H]2C(=O)N[C@@H](CCCCN)C(=O)O)[C@@H](C)O)NC(=O)[C@H](Cc2c[nH]cn2)NC3=O)NC(=O)[C@@H]2CCCN2C(=O)[C@H](CCCCN)NC1=O` [AgTx2, agitoxin 2], the “inhibition of binding of labeled ligands by excess unlabeled ligand” value in the assay with KcsA-Kv1.3-RFP [1] (100 nM unlabeled AgTx2) is “completely inhibited”. For the same molecule, the IC50 on KcsA-Kv1.3-RFP [1] (displacement of 1 nM AgTx2-GFP, Figure 4B curve, read-out: IC50 (displacement of 50% of the labeled ligand)) was found to be 0.7 nM. Besides, the Kd on KcsA-Kv1.3-RFP [1] (n = 2) is 0.1 ± 0.02 nM; at KcsA-Kv1.3, 0.21 nM. In the assay with KcsA-Kv1.3-RFP [1] (unlabeled toxin vs its GFP-labeled variant), the “fold by which binding constant is lower than that of the labeled variant” value is 2–4 times. Further, the “Kd or IC50 (literature)” value at Kv1.3 (ref 8) was 6.4 nM; at Kv1.3 (ref 18) it was 0.004 nM; at Kv1.3 (ref 19), 0.2 nM.

B1: charybdotoxin tagged N-terminally with eGFP (ligand)
chain: QFTNVSCTTSKECWSVCQRLHNTSRGKCMNKKCRCYS
notes: also called ChTx-GFP; GFP-L1-ChTx; source: E. coli Rosetta-gami (DE3) pLysS, pET23d-GFP-L1-ChTx, purified (Ni-NTA, PD-10 desalting); not shown: eGFP (with the linker L1), N-terminal, kept
In turn, B1 had a Kd in assay [3] of 0.86 nM. Also, the “Kd by the conventional mean/median analysis, which the authors reject” value in assay [4] is 32 nM.

B2: agitoxin 2 tagged N-terminally with eGFP (ligand)
chain: GVPINVSCTGSPQCIKPCKDAGMRFGKCMNRKCHCTPK
notes: The analogous ChTx-GFP was purified on Ni-NTA, so a His tag is likely here too; also called AgTx2-GFP; AgTx-GFP; source: design and production described earlier [14]; (plasmid pET23d-GFP-L1-AgTx2); not shown: eGFP (with the 45-aa linker L1), N-terminal, kept
The molecule B2 yielded a Kd in assay [5] of 0.2 nM. The “Kd by the conventional mean/median analysis, which the authors reject” value in assay [4] was determined as 6 nM.

B3: agitoxin 2 (peptide)
chain: GVPINVSCTGSPQCIKPCKDAGMRFGKCMNRKCHCTPK
notes: also called AgTx2; source: recombinant, produced as described earlier [12] from plasmid pET23d-MalE-L1-AgTx2
Take B3: the Kd in assay [5] was determined as 0.1 nM.

B4: kaliotoxin 1 (peptide)
chain: GVEINVKCSGSPQCLKPCKDAGMRFGKCMNRKCHCTPK
notes: also called KTx; source: recombinant, produced as described earlier [12] from plasmid pET23d-MalE-L1-KTx
Turning to B4, the Kd in assay [5] stood at 0.04 nM.

These data come from article PMC8614864, “Bioengineered System for High Throughput Screening of Kv1 Ion Channel Blockers” (Bioengineering, 2021).
